Results on three compounds are retold here after US10328161B2, “Luciferin derivatives from bicyclic reactants and aminothiol derivatives and methods of use thereof” (The Regents of the University of California, priority 2012, dated 2019).

The test system of data set [1] is FVB-luc^+ mice. Put plainly: Comparison of in situ luciferin formation and luciferin in mice. It is filed as in vivo. Particulars: 0.05 μmol luciferin IP. The source says: A Xenogen IVIS Spectrum instrument (Caliper Life Sciences, Hopkinton, Mass.) was used for bioluminescent imaging in all animal experiments. Mice were anesthetized prior to injection and during imaging via inhalation of isoflurane. Phosphate Buffered Saline (PBS) was purchased from Thermo Fisher Scientific (Waltham, Mass.), and saline (0.9%) was made from sodium chloride and Millipore water. Isoflurane was purchased from Phoenix Pharmaceuticals, Inc. (St. Joseph, Mo.), and pharmaceutical grade DMSO was purchased from Sigma-Aldrich (St. Louis, Mo.). Medical grade oxygen was purchased from Praxair (Danbury, Conn.). FVB-luc^+ (FVB-Tg(CAG-luc,-GFP)L2G85Chco/J) mice were bred at UC Berkeley, and were single or group-housed on a 12:12 light-dark cycle at 22° C. with free access to food and water. All studies were approved and performed according to the guidelines of the Animal Care and Use Committee of the University of California, Berkeley. Unshaven, male FVB-luc^+ mice were anesthetized with isoflurane and injected IP with D-[…].05 or 0.5 μmol, in 20 μL of PBS) or vehicle (20 μL PBS). After 2 min, mice were injected IP with HCBT (0.05 or 0.5 μmol in 50 μL of 1:1 DMSO:PBS) or luciferin (0.05 μmol in 50 μL of 1:1 DMSO:PBS). Following injections, mice were imaged with an IVIS Spectrum.

Data set [2] has as its system PC3M-luc cells. Nature of the data set: Comparison of in situ luciferin formation and luciferin in PC3M-luc cells (intact and lysed). It counts as cell-based. Here is the method: (§1) A Xenogen IVIS Spectrum instrument (Caliper Life Sciences, Hopkinton, Mass.) was used for bioluminescent imaging in all cellular experiments. PC3M-luc cells (kindly provided by Chris Contag, Stanford University) were cultured in Dulbecco's Modified Eagle Medium (DMEM) containing 10% Fetal Bovine Serum (FBS). Prior to assaying, cells were passed and plated (1.3-1.5×10^4 cells/well) in black 96-well plates with clear bottoms (Becton Dickinson and Company, Franklin Lakes, N.J.). Once the cells were ca. 95% confluent, reagents were added for bioluminescent assays.
PC3M-luc cells prepared as described above were washed with HBSS (25 mM glucose) prior to addition of HCBT and D-cysteine (0-500 μM, 1% DMSO) or luciferin (0-500 μM, 1% DMSO) in HBSS (25 mM glucose). For experiments with lysed cells, 100 μL Glo lysis buffer (Promega, Madison, Wis.) was incubated with the PC3M-luc cells for 5 min prior to addition of HCBT and D-cysteine or luciferin. The plates were immediately imaged for 2 h to determine the peak bioluminescent signal produced.

For data set [3], the system named is PC3M-luc cells. Nature of the data set: Lifetime of HCBT and D-cysteine in PC3M-luc cells. It counts as cell-based. Particulars: 100 μM, 30 min incubation, wash, complementary reagent after 0-60 min. As for the experimental part:
as §1
The medium was removed from PC3M-luc cells prepared as described above, and HCBT (100 μM, 1% DMSO) or D-cysteine (100 μM, 1% PBS) in DMEM (-FBS) was added. After a 30 min incubation, the HCBT or D-cysteine was removed, the cells were washed with DMEM (-FBS), and fresh DMEM was added. After 0, 15, 30, 45, or 60 min, the second component of luciferin, D-cysteine (100 μM final concentration, 1% PBS) or HCBT (100 μM final concentration, 1% DMSO) in HBSS (25 mM glucose) was added, and the plate was immediately imaged for 2 h to determine the peak bioluminescent signal produced.

Data set [4] can be described thus: Selectivity assay for PCL-2: panel of various ROS. It is filed as biochemical. As for the experimental part: (§2) Millipore water was used to prepare all aqueous solutions. Luciferase (100 μg/mL) in 50 mM Tris buffer, pH 7.4, with 10 mM MgCl2, 0.1 mM ZnCl2, and 2 mM ATP was added to selectivity assay samples (described below) to determine the relative amount of luciferin formed during incubation. Measurements for bioluminescent assays were performed at 37° C. and were recorded using a Molecular Devices SpectraMax M2 plate reader (Sunnyvale, Calif.). Samples for bioluminescent measurements were placed in white, opaque 96-well plates, which were purchased from Corning Inc. (Corning, N.Y.). ATP was purchased from MP Biomedicals (Solon, Ohio) or Sigma-Aldrich (St. Louis, Mo.), and luciferase was purchased from Promega (Madison, Wis.). Caspase enzymes were purchased from Sigma-Aldrich (St. Louis, Mo.), and caspase inhibitors were purchased from MP Biomedicals (Solon, Ohio).
(§3) Various ROS (100 μM) were administered to PCL-2 or HCBT (5 μM) in Tris buffer (50 mM, pH 7.4) with or without 10 mM MgCl2 and 0.1 mM ZnCl2. […] After an additional 15 min incubation, 100 μL of a Tris buffer (50 mM, pH 7.4) containing luciferase (100 μg/mL), 10 mM MgCl2, 0.1 mM ZnCl2, and 2 mM ATP was added to 100 μL of the PCL-2 or HCBT solutions and the bioluminescent signal was detected.

The subject of data set [5] is PC3M-luc cells. Nature of the data set: Signal produced from endogenous L-cysteine in PC3M-luc cells. It counts as cell-based. The conditions noted are these: HCBT alone 0-50 μM. Here is the method:
as §1
PC3M-luc cells prepared as described above were washed with HBSS (25 mM glucose) prior to addition of HCBT and D-cysteine (0-50 μM, 1% DMSO) or HCBT alone (0-50 μM, 1% DMSO) in HBSS (25 mM glucose). The plate was immediately imaged for 2 h to determine the peak bioluminescent signal produced.

The test system of data set [6] is FVB-luc^+ mice. Put plainly: Signal produced from endogenous L-cysteine in mice. It is filed as in vivo. Particulars: HCBT 0.05 μmol IP without D-cysteine. The source says:
(§4) A Xenogen IVIS Spectrum instrument (Caliper Life Sciences, Hopkinton, Mass.) was used for bioluminescent imaging in all animal experiments. Mice were anesthetized prior to injection and during imaging via inhalation of isoflurane. Phosphate Buffered Saline (PBS) was purchased from Thermo Fisher Scientific (Waltham, Mass.), and saline (0.9%) was made from sodium chloride and Millipore water. Isoflurane was purchased from Phoenix Pharmaceuticals, Inc. (St. Joseph, Mo.), and pharmaceutical grade DMSO was purchased from Sigma-Aldrich (St. Louis, Mo.). Medical grade oxygen was purchased from Praxair (Danbury, Conn.).
(§5) FVB-luc^+ (FVB-Tg(CAG-luc,-GFP)L2G85Chco/J) mice were bred at UC Berkeley, and were single or group-housed on a 12:12 light-dark cycle at 22° C. with free access to food and water. All studies were approved and performed according to the guidelines of the Animal Care and Use Committee of the University of California, Berkeley.
Unshaven, male FVB-luc+ mice were anesthetized with isoflurane and injected IP with D-cysteine (0.05 μmol, in 20 μL of PBS) or vehicle (20 μL PBS). After 2 min, mice were injected IP with HCBT (0.05 μmol in 50 μL of 1:1 DMSO:PBS). Following injections, mice were imaged with an IVIS Spectrum.

Data set [7] is described as follows: Selectivity assay for PCL-2: response to H2O2. It is filed as biochemical. Particulars: PCL-2 5 μM, H2O2 100 μM, 5-60 min, then D-cysteine and luciferase. As for the experimental part:
as §2, §3

Data set [8] in a line: Concentration dependence of PCL-2 in aqueous solution. It counts as biochemical. As for the experimental part: as §2
PCL-2 was incubated in Tris buffer (50 mM, pH 7.4) with various concentrations of H2O2 for 60 min prior to the addition of catalase (0.4 mg/mL), dithiothreitol (1 mM) and D-cysteine (20 μM). After an additional 15 min incubation, 100 μL of a Tris buffer (50 mM, pH 7.4) containing luciferase (100 μg/mL), 10 mM MgCl2, 0.1 mM ZnCl2, and 2 mM ATP was added to 100 μL of the PCL-2 solutions and the bioluminescent signal was detected.

Data set [9] can be described thus: Kinetic analysis of the PCL-2 and H2O2 reaction. It counts as physicochemical. The conditions noted are these: PCL-2 10 μM, H2O2 1, 2.5 or 5 mM, Tris buffer pH 8.5. As for the experimental part: H2O2 (1, 2.5, or 5 mM) was added to PCL-2 (10 μM) in Tris buffer (pH 8.5) and absorbance measurements were recorded every 15-30 seconds over 5-20 minutes to determine the second order rate constant for the reaction. Measurements were taken at pH 8.5 to distinguish the HCBT peak, which shifts from 321 nm to 379 nm when it is deprotonated, from the PCL-2 peak (321 nm).

Data set [10] is described as follows: Exogenous H2O2 experiments in mice. It counts as in vivo.
Excerpt: as §4, §5
Unshaven, male FVB-luc^+ mice were anesthetized with isoflurane and injected IP with a mixture of PCL-2 and D-cysteine (0.05 μmol each, in 50 μL of 1:1 DMSO:PBS), followed immediately by an IP injection of H2O2 (0-4.5 μmol in 100 μL of PBS). Control mice were injected IP with a mixture of HCBT and D-cysteine (0.01 μmol each, in 50 μL of 1:1 DMSO:PBS) immediately prior to H2O2 (4.5 μmol in 100 μL of PBS). Following injections, mice were imaged with an IVIS Spectrum.

Data set [11] in a line: Lipopolysaccharide inflammation model, H2O2 detection with PCL-2. It is filed as in vivo, mice. The conditions noted are these: LPS 3 mg/kg IP 6 h before PCL-2 and D-cysteine 0.05 μmol each.
Excerpt: as §4, §5
Unshaven, female FVB-luc^+ mice, aged 2-5 months, were anesthetized with isoflurane and injected IP with lipopolysaccharides (LPS, 3 mg/kg in 50 μL of saline) or saline (50 μL). For studies with PCL-2 alone, mice were injected IP with either apocynin (10 mg/kg in 20 μL of DMSO) or DMSO (20 μL) 6 h after LPS injection. […]

Data set [12] concerns PC3M-luc cells. Put plainly: Concentration dependence of PCL-2 with PC3M-luc cells. It is filed as cell-based. Particulars: PCL-2 25 μM, D-cysteine 25 μM. Here is the method: as §1
The medium was removed from PC3M-luc cells prepared as described above, and PCL-2 (25 μM, 2.5% final DMSO concentration), D-cysteine (25 μM), and H2O2 (0-100 μM final concentrations) in DMEM (-FBS) were added. The plate was immediately imaged for 2 h to determine the peak bioluminescent signal produced from PCL-2.

For the compound `O=C(O)[C@H]1CSC(c2nc3ccc(O)cc3s2)=N1` [luciferin], the “brightness of signal relative to 0.05 μmol HCBT/D-cysteine” value with FVB-luc^+ mice [1] is “ca. 40 fold”. In addition, in the data set with PC3M-luc cells [2] (intact PC3M-luc cells, lower concentrations (0-500 μM range)), the “bioluminescent signal, luciferin versus HCBT/D-cysteine” value is recorded as “greater signal than HCBT/D-cysteine”.

Consider `N#Cc1nc2ccc(O)cc2s1` [HCBT, 2-Cyano-6-hydroxybenzothiazole], for which, in the data set on PC3M-luc cells [3], the “cellular lifetime: signal as time between removal and addition of the complementary reagent increases” value was “decrease in luminescence”. Further, the “bioluminescence turn-on with the same panel of ROS” value in data set [4] (HCBT 5 μM, ROS 100 μM incl. H2O2, 60 min) is recorded as “no bioluminescence turn-on”. Moreover, the “permeability across the cell membrane compared to luciferin” value in the data set with PC3M-luc cells [2] (inferred from intact versus lysed PC3M-luc cells) is listed as “increased permeability”. The “bioluminescence from HCBT and endogenous L-cysteine compared to HCBT with D-cysteine” value in the data set on PC3M-luc cells [5] is “negligible production of bioluminescence”. In the data set on FVB-luc^+ mice [6], the “bioluminescent signal from HCBT and endogenous L-cysteine compared to D-cysteine present” value is “negligible”.

For the compound `N#Cc1nc2ccc(OCc3ccc(B(O)O)cc3)cc2s1` [PCL-2, 4-((2-Cyanobenzo[d]thiazol-6-yloxy)methyl)phenylboronic acid], in data set [7], the “increase in bioluminescence in the presence of H2O2” value is given as “ca. 50 fold”. Besides, the “range of linear response to H2O2” value in data set [8] (PCL-2 5 μM, 60 min, aqueous solution) was 1-100 μM H2O2. Besides, the “detection limit for H2O2” value in data set [8] (in vitro summary statement) is given as “low micromolar”. Moreover, the “second-order rate constant k for the PCL-2 and H2O2 reaction” value in data set [9] turned out to be 2.7 M⁻¹ s⁻¹. Besides, in [4] (5 μM probe, ROS 100 μM (TBHP, hypochlorite, NO, OH, OtBu, O2-)), the “response to other ROS” value was “negligible response”. Also, in data set [10] (H2O2 0.5 μmol, PCL-2 0.05 μmol), the Turn-on is recorded as 2.8-fold. Moreover, in data set [10] (IP, FVB-luc^+ mice, optimized imaging conditions for each probe), the “detection limit for H2O2 in vivo” value was “ca. 0.5 μmol”. The “turn-on in response to LPS stimulation” value in data set [11] is “ca. 3.7 fold”. The “range of linear response to H2O2 in cellulo” value with PC3M-luc cells [12] is 0-100 μM H2O2.
